Measurements from US20040079671A1, “Medicinal product packaging” (priority 2002, published 2004).

Test: Accelerated stability at 56° C. of chlorobutanol and paraben test solution in untreated and fluorinated polypropylene bottles (HPLC concentration)
Format: physicochemical
Method: Polypropylene bottles (dropper-type) were obtained from Owens-Brockway, Ill. (capacity 5 ml). Some of the bottles were sent to a company called Fluoro-Seal (Columbus, Ohio) where they were treated for fluorine-coating under a proprietary method. After the bottles were ‘fluorosealed’ (done at ‘level 5’) they were washed in dilute soap solution rinsed several times in de-ionized water and dried before use. The bottles were then filled with 3 ml of a chlorobutanol and paraben test solution (Table 4). Control samples of untreated polypropylene bottles filled with the same solution were also prepared. All samples were prepared in duplicate and put up on accelerated stability at 56° C. Before putting on stability, ‘0’ time-point samples from all bottles were collected and the bottles were weighed. Concentration of cholorobutanol and methyl- and propyl parabens was determined by an HPLC method. Samples were taken at 1 wk, 2 wk and 4 wks by expelling ˜50-100 mcg droplets into tared vials. Bottles were weighed before and after sampling, before returning to condition. The following terms are used in Table 4, below. PP means polypropylene (untreated). PP-FL or PP-FL5 means fluorinated polypropylene at service provider's specified level of ‘5’. LDPE is low density polyethylene (untreated). LDPE-FL5 means low density polyethylene fluorinated at service provider's specified level of ‘5’. Duplicate samples were measured.

## CCCOC(=O)c1ccc(O)cc1 [PROPYLPARABEN, propylparaben]
Bottle FL-5P P-2 (fluorinated polypropylene, level 5), time of storage 0 weeks
  Conc. of propylparaben: 102 µg/mL
Bottle FL-5P P-2 (fluorinated polypropylene, level 5), time of storage 1 week
  Conc. of propylparaben: 95.3 µg/mL
Bottle FL-5P P-2 (fluorinated polypropylene, level 5), time of storage 2 weeks
  Conc. of propylparaben: 96.6 µg/mL
Bottle FL-5P P-2 (fluorinated polypropylene, level 5), time of storage 4 weeks
  Conc. of propylparaben: 94.6 µg/mL
Bottle FL-5 PP-1 (fluorinated polypropylene, level 5), time of storage 0 weeks
  Conc. of propylparaben: 104 µg/mL
Bottle FL-5 PP-1 (fluorinated polypropylene, level 5), time of storage 1 week
  Conc. of propylparaben: 95.3 µg/mL
Bottle FL-5 PP-1 (fluorinated polypropylene, level 5), time of storage 2 weeks
  Conc. of propylparaben: 96.6 µg/mL
Bottle FL-5 PP-1 (fluorinated polypropylene, level 5), time of storage 4 weeks
  Conc. of propylparaben: 89.3 µg/mL
Bottle PP-1 (untreated polypropylene), time of storage 0 weeks
  Conc. of propylparaben: 103 µg/mL
Bottle PP-1 (untreated polypropylene), time of storage 1 week
  Conc. of propylparaben: 86.2 µg/mL
Bottle PP-1 (untreated polypropylene), time of storage 2 weeks
  Conc. of propylparaben: 82.5 µg/mL
Bottle PP-1 (untreated polypropylene), time of storage 4 weeks
  Conc. of propylparaben: 69.5 µg/mL
Bottle PP-2 (untreated polypropylene), time of storage 0 weeks
  Conc. of propylparaben: 103 µg/mL
Bottle PP-2 (untreated polypropylene), time of storage 1 week
  Conc. of propylparaben: 86.9 µg/mL
Bottle PP-2 (untreated polypropylene), time of storage 2 weeks
  Conc. of propylparaben: 77.8 µg/mL
Bottle PP-2 (untreated polypropylene), time of storage 4 weeks
  Conc. of propylparaben: 65.1 µg/mL
